# Data reported in paper PMC12527922, “Cocaine chemogenetics blunts drug-seeking by synthetic physiology” (Nature, 2025).
# Several values for one entry are separate records, joined by “and”; a condition that tells them apart may be missing. Equal values may be shown once.
# Experiments:
# coca-GlyR = target: T1, coca-GlyR (Homo sapiens, UniProt P23415+P36544, G175K/L141G/Y217F); test: [^3H]ASEM displacement, membranes of HEK293 cells expressing coca-GlyR; format: binding
# T1 construct: expressed in transfected cells; host or cells: HEK293 (ATCC CRL-1573), pcDNA3.1
# T1 sequence (P36544+P23415 fused P36544:L141G/P36544:G175K/P36544:Y217F): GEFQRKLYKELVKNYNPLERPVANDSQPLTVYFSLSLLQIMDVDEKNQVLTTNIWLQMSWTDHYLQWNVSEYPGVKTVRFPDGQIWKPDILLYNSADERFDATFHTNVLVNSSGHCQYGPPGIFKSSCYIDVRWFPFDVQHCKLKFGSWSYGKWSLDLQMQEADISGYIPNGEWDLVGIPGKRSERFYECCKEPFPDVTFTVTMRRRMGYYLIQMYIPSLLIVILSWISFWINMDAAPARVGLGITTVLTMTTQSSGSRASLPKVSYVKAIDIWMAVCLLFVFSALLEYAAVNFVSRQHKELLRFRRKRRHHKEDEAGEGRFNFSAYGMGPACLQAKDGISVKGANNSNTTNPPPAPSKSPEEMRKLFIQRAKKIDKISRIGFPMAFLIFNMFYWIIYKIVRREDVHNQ
# Experimental: (§1) Cells were suspended in Tris-HCl 50 mM pH 7.4 supplemented with protease inhibitor cocktail (1:100, Sigma-Aldrich). HEK293 cells were disrupted with a 6 Polytron homogenizer (Kinematica). Homogenates were centrifuged at 48,000g (50 min, 4 °C) and washed twice in the same conditions to isolate the membrane fraction. Protein was quantified using the bicinchoninic acid method (Pierce). […] Free and membrane-bound radioligands were separated by rapid filtration of 500 μl aliquots in a 96-well plate harvester (Brandel) and washed with 2 ml of ice-cold Tris-HCl buffer. Microscint-20 scintillation liquid (65 μl per well, PerkinElmer) was added to the filter plates, plates were incubated overnight at room temperature and radioactivity counts were determined in the MicroBeta2 plate counter (PerkinElmer) with an efficiency of 41%. Two-site competition curves were fitted using Prism 10 (GraphPad). Ki values were calculated using the Cheng–Prusoff equation.
# coca-5HT3 = coca-5HT3 (Homo sapiens, UniProt P36544, G175K/L141G/Y210F/Y217F); test: [^3H]ASEM displacement, membranes of HEK293 cells expressing coca-5HT3; format: binding, human α7 nAChR LBD, mouse 5HT3 IPD; conditions: for [3H]ASEM binding, normalised dose-response (DR replicates): HotNM 2.000
# coca-5HT3, sequence (P23979 242-489): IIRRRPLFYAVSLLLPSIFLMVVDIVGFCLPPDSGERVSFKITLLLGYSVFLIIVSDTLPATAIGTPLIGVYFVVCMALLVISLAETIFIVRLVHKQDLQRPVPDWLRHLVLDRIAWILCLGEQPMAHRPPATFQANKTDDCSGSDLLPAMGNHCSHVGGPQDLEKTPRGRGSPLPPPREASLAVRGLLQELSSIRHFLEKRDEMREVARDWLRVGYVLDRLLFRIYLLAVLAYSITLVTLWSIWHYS
# coca-5HT3, sequence (P36544 23-224 L141G/G175K/Y210F/Y217F): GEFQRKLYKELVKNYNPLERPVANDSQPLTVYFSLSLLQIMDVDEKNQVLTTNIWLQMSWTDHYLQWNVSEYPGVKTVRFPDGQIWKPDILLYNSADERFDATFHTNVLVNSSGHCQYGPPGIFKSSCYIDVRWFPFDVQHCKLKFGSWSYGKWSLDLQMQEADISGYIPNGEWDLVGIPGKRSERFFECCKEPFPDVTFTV
# Experimental: as §1
# unmodified α7–5HT3 = target: T2, unmodified α7–5HT3 (UniProt P23979+P36544); parameters: method as in PMID 30872534; conditions: cited from earlier work
# T2 construct: expressed in transfected cells; host or cells: HEK293 (ATCC CRL-1573), pcDNA3.1
# T2 sequence (P36544+P23979 fused P36544:T225I/P36544:M226I): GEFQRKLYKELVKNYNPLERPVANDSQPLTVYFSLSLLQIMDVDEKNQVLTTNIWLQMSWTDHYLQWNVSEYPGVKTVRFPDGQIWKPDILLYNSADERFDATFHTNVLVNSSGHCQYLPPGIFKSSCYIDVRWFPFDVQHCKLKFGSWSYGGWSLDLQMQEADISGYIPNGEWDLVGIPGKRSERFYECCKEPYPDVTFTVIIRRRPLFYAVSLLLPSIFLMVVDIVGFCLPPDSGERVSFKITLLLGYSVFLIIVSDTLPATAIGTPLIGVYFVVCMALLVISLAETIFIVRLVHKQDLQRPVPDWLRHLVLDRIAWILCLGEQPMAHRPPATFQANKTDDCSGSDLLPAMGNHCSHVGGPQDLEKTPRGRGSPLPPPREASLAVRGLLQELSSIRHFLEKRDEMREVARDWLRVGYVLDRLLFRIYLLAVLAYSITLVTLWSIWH
# α7 nAChR = conditions: cited from earlier work
# unmodified α7–GlyR = target: T3, unmodified α7–GlyR (Homo sapiens, UniProt P23415+P36544); parameters: method as in PMID 30872534; conditions: cited from earlier work
# T3 construct: expressed in transfected cells; host or cells: HEK293 (ATCC CRL-1573), pcDNA3.1
# T3 sequence (P36544+P23415 fused): as the sequence (P36544+P23415 fused P36544:L141G/P36544:G175K/P36544:Y217F) above, with G119L, K153G, F195Y counted along it
# [1] = Two sites - Fit Ki, best-fit value per replicate
# [2] = Two sites - Fit Ki, best-fit value, single experiment
compound,measurement,setting,value
O=S1(=O)c2cc(N3CCN4CCC3CC4)ccc2-c2cccc(F)c21 [ASEM],binding to coca-GlyR,coca-GlyR,biphasic manner
same,binding to coca-5HT3,coca-5HT3,biphasic manner
same,FractionHi MEAN,"coca-5HT3; Two sites - Fit Ki, MEAN of 3 experiments",0.4238
same,Bottom,coca-5HT3; [1],-0.2261 and -1.876 and -13.02
same,Top,coca-5HT3; [1],108.2 and 99.61 and 97.94
same,FractionHi,"coca-5HT3; Two sites - Fit Ki, best-fit value per replicate, fraction of high-affinity sites",0.4342 and 0.3061 and 0.4229
same,FractionHi,coca-5HT3; [2],0.4739 and 0.3529 and 0.4445
same,Top,coca-5HT3; [2],103.6 and 103.2 and 103.8
same,FractionHi MEAN,"coca-5HT3; Two sites - Fit Ki, MEAN of replicates",0.3877
same,"[3H]ASEM binding, normalised dose-response (DR replicates)",coca-5HT3; competitor log(M) -4,0 and 2.042 and -2.042
same,"[3H]ASEM binding remaining, single experiment",coca-5HT3; competitor log(M) -5,21.992 and 15.466 and 20.212
same,"[3H]ASEM binding, normalised dose-response (DR replicates)",coca-5HT3; competitor log(M) -5,13.773 and 20.58
same,"[3H]ASEM binding remaining, single experiment",coca-5HT3; competitor log(M) -5.5,26.835 and 27.725
same,"[3H]ASEM binding, normalised dose-response (DR replicates)",coca-5HT3; competitor log(M) -5.5,32.147 and 34.87 and 51.889
same,"[3H]ASEM binding remaining, single experiment",coca-5HT3; competitor log(M) -6,38.451 and 39.34
same,"[3H]ASEM binding, normalised dose-response (DR replicates)",coca-5HT3; competitor log(M) -6,39.688 and 59.43 and 60.791
same,"[3H]ASEM binding remaining, single experiment",coca-5HT3; competitor log(M) -6.5,45.049 and 48.906 and 53.356
same,"[3H]ASEM binding, normalised dose-response (DR replicates)",coca-5HT3; competitor log(M) -6.5,51.256 and 70.998 and 34.237
same,"[3H]ASEM binding remaining, single experiment",coca-5HT3; competitor log(M) -7,68.627 and 77.823 and 60.024
same,"[3H]ASEM binding, normalised dose-response (DR replicates)",coca-5HT3; competitor log(M) -7,64.248 and 83.99 and 53.356
same,"[3H]ASEM binding remaining, single experiment",coca-5HT3; competitor log(M) -8,69.758 and 69.462 and 44.246
same,"[3H]ASEM binding, normalised dose-response (DR replicates)",coca-5HT3; competitor log(M) -8,67.668 and 43.16
same,"[3H]ASEM binding remaining, single experiment",coca-5HT3; competitor log(M) -8.5,79.055 and 76.385 and 69.859
same,"[3H]ASEM binding, normalised dose-response (DR replicates)",coca-5HT3; competitor log(M) -8.5,58.761 and 45.827 and 64.888
same,"[3H]ASEM binding remaining, single experiment",coca-5HT3; competitor log(M) -9,118.645 and 95.803 and 67.325
same,"[3H]ASEM binding, normalised dose-response (DR replicates)",coca-5HT3; competitor log(M) -9,68.4 and 67.719
same,"[3H]ASEM binding remaining, single experiment",coca-5HT3; competitor log(M) -9.5,111.297 and 122.273 and 76.589
same,"[3H]ASEM binding, normalised dose-response (DR replicates)",coca-5HT3; competitor log(M) -9.5,73.805 and 71.082 and 77.209
same,"[3H]ASEM binding remaining, single experiment",coca-5HT3; competitor log(M) -10,101.728 and 95.202 and 81.556
same,"[3H]ASEM binding, normalised dose-response (DR replicates)",coca-5HT3; competitor log(M) -10,78.63 and 99.734 and 90.884
same,"[3H]ASEM binding remaining, single experiment",coca-5HT3; competitor log(M) -10.5,92.261 and 100.567 and 96.414
same,"[3H]ASEM binding, normalised dose-response (DR replicates)",coca-5HT3; competitor log(M) -10.5,94.278 and 80.663 and 86.79
same,"[3H]ASEM binding remaining, single experiment",coca-5HT3; competitor log(M) -11,96.153 and 103.569 and 104.162
same,"[3H]ASEM binding, normalised dose-response (DR replicates)",coca-5HT3; competitor log(M) -11,97.033 and 84.779 and 104.521
same,"[3H]ASEM binding remaining, single experiment",coca-5HT3; competitor log(M) -13,102.966 and 93.474 and 103.56
same,"[3H]ASEM binding, normalised dose-response (DR replicates)",coca-5HT3; competitor log(M) -13,111.346 and 109.984
CN1[C@@H]2CC[C@H]1C[C@@H](OC(=O)c1c[nH]c3ccccc13)C2 [tropisetron],activity at chimeric channel α7–5HT3,unmodified α7–5HT3,agonist
same,activity at α7 nAChR,α7 nAChR,agonist
same,activity at chimeric channel α7–GlyR,unmodified α7–GlyR,agonist
